Experimental data: patent US11746139B2, “IL-7Rαγc binding compounds” (MEDIKINE, INC., priority 2020, dated 2023)
pIC50: −log10 of the molar value.

Biological target: T1, Rγc subunit (Homo sapiens, UniProt P31785)
T1 construct: purchased ACRObiosystems, Inc. ILG-H5256
Assay: Alanine scan competition binding assay, binding to Rγc subunit
Conditions: alanine scan peptides

T1 sequence (P31785 23-254): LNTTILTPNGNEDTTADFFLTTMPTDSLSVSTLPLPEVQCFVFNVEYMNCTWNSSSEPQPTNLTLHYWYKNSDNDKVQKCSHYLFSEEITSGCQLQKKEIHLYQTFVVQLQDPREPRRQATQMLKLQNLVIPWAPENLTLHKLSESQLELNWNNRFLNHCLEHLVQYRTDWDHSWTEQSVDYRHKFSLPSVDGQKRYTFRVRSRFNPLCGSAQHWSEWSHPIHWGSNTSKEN

Row | IC50 | SMILES
1 | < 50 nM | CC(C)C[C@@H]1NC(=O)[C@H](CCC(=O)O)NC(=O)[C@H](C(C)C)NC(=O)CNC(=O)[C@H](CCC(=O)O)NC(=O)[C@H](Cc2c[nH]c3ccccc23)NC(=O)[C@H](CC(=O)O)NC(=O)[C@H](CCC(N)=O)NC(=O)[C@@H](NC(=O)[C@@H](NC(=O)[C@@H](NC(=O)CNC(=O)CN)C(C)C)C(C)C)CSSC[C@@H](C(=O)N[C@@H](Cc2c[nH]c3ccccc23)C(=O)N[C@@H](CCC(N)=O)C(=O)NCC(=O)NCC(=O)O)NC1=O [SEQ ID NO: 1031, G G V V C Q D W E G V E L C W Q G G]
2 | < 100 nM | CC(C)C[C@@H]1NC(=O)[C@H](CCC(=O)O)NC(=O)[C@H](C(C)C)NC(=O)CNC(=O)[C@H](CCC(=O)O)NC(=O)[C@H](Cc2c[nH]c3ccccc23)NC(=O)[C@H](CC(=O)O)NC(=O)[C@H](C)NC(=O)[C@@H](NC(=O)[C@@H](NC(=O)[C@@H](NC(=O)CNC(=O)CN)C(C)C)C(C)C)CSSC[C@@H](C(=O)N[C@@H](Cc2c[nH]c3ccccc23)C(=O)N[C@@H](CCC(N)=O)C(=O)NCC(=O)NCC(=O)O)NC1=O [SEQ ID NO: 1032, G G V V C A D W E G V E L C W Q G G]
3 | < 50 nM | CC(C)C[C@@H]1NC(=O)[C@H](CCC(=O)O)NC(=O)[C@H](C(C)C)NC(=O)CNC(=O)[C@H](CCC(=O)O)NC(=O)[C@H](Cc2c[nH]c3ccccc23)NC(=O)[C@H](C)NC(=O)[C@H](CCC(N)=O)NC(=O)[C@@H](NC(=O)[C@@H](NC(=O)[C@@H](NC(=O)CNC(=O)CN)C(C)C)C(C)C)CSSC[C@@H](C(=O)N[C@@H](Cc2c[nH]c3ccccc23)C(=O)N[C@@H](CCC(N)=O)C(=O)NCC(=O)NCC(=O)O)NC1=O [SEQ ID NO: 1033, G G V V C Q A W E G V E L C W Q G G]
4 | < 2000 nM | CC(C)C[C@@H]1NC(=O)[C@H](CCC(=O)O)NC(=O)[C@H](C(C)C)NC(=O)CNC(=O)[C@H](CCC(=O)O)NC(=O)[C@H](C)NC(=O)[C@H](CC(=O)O)NC(=O)[C@H](CCC(N)=O)NC(=O)[C@@H](NC(=O)[C@@H](NC(=O)[C@@H](NC(=O)CNC(=O)CN)C(C)C)C(C)C)CSSC[C@@H](C(=O)N[C@@H](Cc2c[nH]c3ccccc23)C(=O)N[C@@H](CCC(N)=O)C(=O)NCC(=O)NCC(=O)O)NC1=O [SEQ ID NO: 1034, G G V V C Q D A E G V E L C W Q G G]
5 | < 50 nM | CC(C)C[C@@H]1NC(=O)[C@H](CCC(=O)O)NC(=O)[C@H](C(C)C)NC(=O)CNC(=O)[C@H](C)NC(=O)[C@H](Cc2c[nH]c3ccccc23)NC(=O)[C@H](CC(=O)O)NC(=O)[C@H](CCC(N)=O)NC(=O)[C@@H](NC(=O)[C@@H](NC(=O)[C@@H](NC(=O)CNC(=O)CN)C(C)C)C(C)C)CSSC[C@@H](C(=O)N[C@@H](Cc2c[nH]c3ccccc23)C(=O)N[C@@H](CCC(N)=O)C(=O)NCC(=O)NCC(=O)O)NC1=O [SEQ ID NO: 1035, G G V V C Q D W A G V E L C W Q G G]
6 | < 100 nM | CC(C)C[C@@H]1NC(=O)[C@H](CCC(=O)O)NC(=O)[C@H](C(C)C)NC(=O)[C@H](C)NC(=O)[C@H](CCC(=O)O)NC(=O)[C@H](Cc2c[nH]c3ccccc23)NC(=O)[C@H](CC(=O)O)NC(=O)[C@H](CCC(N)=O)NC(=O)[C@@H](NC(=O)[C@@H](NC(=O)[C@@H](NC(=O)CNC(=O)CN)C(C)C)C(C)C)CSSC[C@@H](C(=O)N[C@@H](Cc2c[nH]c3ccccc23)C(=O)N[C@@H](CCC(N)=O)C(=O)NCC(=O)NCC(=O)O)NC1=O [SEQ ID NO: 1036, G G V V C Q D W E A V E L C W Q G G]
7 | < 2000 nM | CC(C)C[C@@H]1NC(=O)[C@H](CCC(=O)O)NC(=O)[C@H](C)NC(=O)CNC(=O)[C@H](CCC(=O)O)NC(=O)[C@H](Cc2c[nH]c3ccccc23)NC(=O)[C@H](CC(=O)O)NC(=O)[C@H](CCC(N)=O)NC(=O)[C@@H](NC(=O)[C@@H](NC(=O)[C@@H](NC(=O)CNC(=O)CN)C(C)C)C(C)C)CSSC[C@@H](C(=O)N[C@@H](Cc2c[nH]c3ccccc23)C(=O)N[C@@H](CCC(N)=O)C(=O)NCC(=O)NCC(=O)O)NC1=O [SEQ ID NO: 1037, G G V V C Q D W E G A E L C W Q G G]

Biological target: IL-7Rα (Homo sapiens, UniProt P16871)
Sequence (P16871 21-236): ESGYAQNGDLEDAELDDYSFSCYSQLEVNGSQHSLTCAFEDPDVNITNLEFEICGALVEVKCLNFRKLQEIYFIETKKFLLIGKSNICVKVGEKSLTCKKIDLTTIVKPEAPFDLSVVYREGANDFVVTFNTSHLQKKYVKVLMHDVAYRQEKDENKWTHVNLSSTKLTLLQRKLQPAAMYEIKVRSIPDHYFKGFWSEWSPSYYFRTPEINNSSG
Assay: Competition binding ELISA with bn407::NA-HRP precomplex
Conditions: bn407:NA-HRP 10 nM final; read-out: Competitive Binding ELISA bn407:NA-HRP (10 nMf) IC50 M

Row | SMILES | pIC50
8 | CC[C@H](C)[C@H](N)C(=O)N1CCC[C@H]1C(=O)N[C@@H](Cc1c[nH]c2ccccc12)C(=O)N[C@H]1CSSC[C@@H](C(=O)N[C@@H](C)C(=O)N[C@@H](Cc2c[nH]c3ccccc23)C(=O)N[C@H](C(=O)N[C@@H](CCCNC(=N)N)C(=O)N[C@@H](CCC(N)=O)C(=O)N[C@@H](CCSC)C(=O)NCC(=O)NCC(=O)O)[C@@H](C)CC)NC(=O)[C@H](CCC(N)=O)NC(=O)[C@H](CC(C)C)NC(=O)CNC(=O)CNC(=O)[C@@H]2CCCN2C(=O)[C@H](CC(=O)O)NC(=O)[C@H](CC(C)C)NC(=O)[C@H]([C@@H](C)O)NC1=O [SEQ ID NO: 426, I P W C T L D P G G L Q C A W I R Q M] | 6.42
9 | CC[C@H](C)[C@H](N)C(=O)N1CCC[C@H]1C(=O)N[C@@H](Cc1c[nH]c2ccccc12)C(=O)N[C@H]1CSSC[C@@H](C(=O)N[C@@H](C)C(=O)N[C@@H](Cc2c[nH]c3ccccc23)C(=O)N[C@H](C(=O)N[C@@H](CCCNC(=N)N)C(=O)N[C@@H](CCC(N)=O)C(=O)N[C@@H](CCSC)C(=O)NCC(=O)NCC(=O)O)C(C)C)NC(=O)[C@H](CCC(N)=O)NC(=O)[C@H](CC(C)C)NC(=O)CNC(=O)CNC(=O)[C@@H]2CCCN2C(=O)[C@H](CC(=O)O)NC(=O)[C@H](CC(C)C)NC(=O)[C@H]([C@@H](C)O)NC1=O [SEQ ID NO: 427, I P W C T L D P G G L Q C A W V R Q M] | 6.39
10 | CC[C@H](C)[C@H](N)C(=O)N1CCC[C@H]1C(=O)N[C@@H](Cc1c[nH]c2ccccc12)C(=O)N[C@H]1CSSC[C@@H](C(=O)N[C@@H](C)C(=O)N[C@@H](Cc2c[nH]c3ccccc23)C(=O)N[C@@H](CC(C)C)C(=O)N[C@@H](C)C(=O)N[C@@H](CCC(N)=O)C(=O)N[C@@H](CCSC)C(=O)NCC(=O)NCC(=O)O)NC(=O)[C@H](CCC(N)=O)NC(=O)[C@H](CC(C)C)NC(=O)CNC(=O)CNC(=O)[C@@H]2CCCN2C(=O)[C@H](CC(=O)O)NC(=O)[C@H](CC(C)C)NC(=O)[C@H]([C@@H](C)O)NC1=O [SEQ ID NO: 428, I P W C T L D P G G L Q C A W L A Q M] | 6.31
11 | CC[C@H](C)[C@H](N)C(=O)N1CCC[C@H]1C(=O)N[C@@H](Cc1c[nH]c2ccccc12)C(=O)N[C@H]1CSSC[C@@H](C(=O)N[C@@H](C)C(=O)N[C@@H](Cc2c[nH]c3ccccc23)C(=O)N[C@@H](CC(C)C)C(=O)N[C@@H](CCCCN)C(=O)N[C@@H](CCC(N)=O)C(=O)N[C@@H](CCSC)C(=O)NCC(=O)NCC(=O)O)NC(=O)[C@H](CCC(N)=O)NC(=O)[C@H](CC(C)C)NC(=O)CNC(=O)CNC(=O)[C@@H]2CCCN2C(=O)[C@H](CC(=O)O)NC(=O)[C@H](CC(C)C)NC(=O)[C@H]([C@@H](C)O)NC1=O [SEQ ID NO: 429, I P W C T L D P G G L Q C A W L K Q M] | 6.33
12 | CC[C@H](C)[C@H](N)C(=O)N1CCC[C@H]1C(=O)N[C@@H](Cc1c[nH]c2ccccc12)C(=O)N[C@H]1CSSC[C@@H](C(=O)N[C@@H](C)C(=O)N[C@@H](Cc2c[nH]c3ccccc23)C(=O)N[C@@H](CC(C)C)C(=O)N[C@@H](Cc2c[nH]cn2)C(=O)N[C@@H](CCC(N)=O)C(=O)N[C@@H](CCSC)C(=O)NCC(=O)NCC(=O)O)NC(=O)[C@H](CCC(N)=O)NC(=O)[C@H](CC(C)C)NC(=O)CNC(=O)CNC(=O)[C@@H]2CCCN2C(=O)[C@H](CC(=O)O)NC(=O)[C@H](CC(C)C)NC(=O)[C@H]([C@@H](C)O)NC1=O [SEQ ID NO: 430, I P W C T L D P G G L Q C A W H K Q M] | 6.17
13 | CC[C@H](C)[C@H](N)C(=O)N1CCC[C@H]1C(=O)N[C@@H](Cc1c[nH]c2ccccc12)C(=O)N[C@H]1CSSC[C@@H](C(=O)N[C@@H](C)C(=O)N[C@@H](Cc2c[nH]c3ccccc23)C(=O)N[C@@H](CC(C)C)C(=O)N[C@@H](CCCNC(=N)N)C(=O)N[C@@H](C)C(=O)N[C@@H](CCSC)C(=O)NCC(=O)NCC(=O)O)NC(=O)[C@H](CCC(N)=O)NC(=O)[C@H](CC(C)C)NC(=O)CNC(=O)CNC(=O)[C@@H]2CCCN2C(=O)[C@H](CC(=O)O)NC(=O)[C@H](CC(C)C)NC(=O)[C@H]([C@@H](C)O)NC1=O [SEQ ID NO: 431, I P W C T L D P G G L Q C A W L R A M] | 6.28
14 | CC[C@H](C)[C@H](N)C(=O)N1CCC[C@H]1C(=O)N[C@@H](Cc1c[nH]c2ccccc12)C(=O)N[C@H]1CSSC[C@@H](C(=O)N[C@@H](C)C(=O)N[C@@H](Cc2c[nH]c3ccccc23)C(=O)N[C@@H](CC(C)C)C(=O)N[C@@H](CCCNC(=N)N)C(=O)N[C@@H](CCC(N)=O)C(=O)N[C@@H](C)C(=O)NCC(=O)NCC(=O)O)NC(=O)[C@H](CCC(N)=O)NC(=O)[C@H](CC(C)C)NC(=O)CNC(=O)CNC(=O)[C@@H]2CCCN2C(=O)[C@H](CC(=O)O)NC(=O)[C@H](CC(C)C)NC(=O)[C@H]([C@@H](C)O)NC1=O [SEQ ID NO: 432, I P W C T L D P G G L Q C A W L R Q A] | 6.03

Now from value to compound:

Row | pIC50 | SMILES
15 | 5.97 | CC[C@H](C)[C@H](N)C(=O)N1CCC[C@H]1C(=O)N[C@@H](Cc1c[nH]c2ccccc12)C(=O)N[C@H]1CSSC[C@@H](C(=O)N[C@@H](C)C(=O)N[C@@H](Cc2c[nH]c3ccccc23)C(=O)N[C@@H](CC(C)C)C(=O)N[C@@H](CCCNC(=N)N)C(=O)N[C@@H](C)C(=O)N[C@@H](C)C(=O)NCC(=O)NCC(=O)O)NC(=O)[C@H](CCC(N)=O)NC(=O)[C@H](CC(C)C)NC(=O)CNC(=O)CNC(=O)[C@@H]2CCCN2C(=O)[C@H](CC(=O)O)NC(=O)[C@H](CC(C)C)NC(=O)[C@H]([C@@H](C)O)NC1=O [SEQ ID NO: 433, I P W C T L D P G G L Q C A W L R A A]
16 | 6.22 | CC[C@H](C)[C@H](N)C(=O)N1CCC[C@H]1C(=O)N[C@@H](Cc1c[nH]c2ccccc12)C(=O)N[C@H]1CSSC[C@@H](C(=O)N[C@@H](C)C(=O)N[C@@H](Cc2c[nH]c3ccccc23)C(=O)N[C@@H](CC(C)C)C(=O)N[C@@H](C)C(=O)N[C@@H](C)C(=O)N[C@@H](C)C(=O)NCC(=O)NCC(=O)O)NC(=O)[C@H](CCC(N)=O)NC(=O)[C@H](CC(C)C)NC(=O)CNC(=O)CNC(=O)[C@@H]2CCCN2C(=O)[C@H](CC(=O)O)NC(=O)[C@H](CC(C)C)NC(=O)[C@H]([C@@H](C)O)NC1=O [SEQ ID NO: 434, I P W C T L D P G G L Q C A W L A A A]
